The record followed here is patent US11944622B2 (Annapurna Bio, Inc., priority 2018, dated 2024).

The structures appear in SMILES notation.

In this assay the target is T1, APJ Receptor (Homo sapiens, UniProt P35414).
T1 sequence (P35414 1-380): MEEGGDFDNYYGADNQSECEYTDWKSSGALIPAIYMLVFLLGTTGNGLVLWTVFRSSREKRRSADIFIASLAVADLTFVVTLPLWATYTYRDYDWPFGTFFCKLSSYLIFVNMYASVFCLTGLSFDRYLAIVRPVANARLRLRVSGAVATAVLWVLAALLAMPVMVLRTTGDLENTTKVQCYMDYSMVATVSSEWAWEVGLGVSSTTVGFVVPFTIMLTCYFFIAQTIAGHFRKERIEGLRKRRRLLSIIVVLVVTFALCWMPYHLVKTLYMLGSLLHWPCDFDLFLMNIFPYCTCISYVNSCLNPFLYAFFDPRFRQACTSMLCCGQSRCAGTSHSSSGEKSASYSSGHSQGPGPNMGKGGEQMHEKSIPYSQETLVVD
Nature of the assay: APJ cAMP assay (DiscoverX enzyme fragment complementation; inhibition of forskolin-stimulated cAMP). The format is cell-based. The conditions noted are these: CHO-K1 cell line stably expressing the APJ Receptor; EC80 forskolin; 30 minutes at 37° C.; read-out: Potency Range (APJ cAMP EC50). Summed up: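 CHO-K1 cells stably expressing APJ incubated with compound plus EC80 forskolin for 30 min at 37° C. cAMP detected by β-galactosidase enzyme fragment complementation with chemiluminescent read-out; % activity calculated relative to vehicle and maximal controls.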
Background: cAMP levels reflect the balance of adenylyl cyclase and phosphodiesterase activity.
Regarding `C=Cc1nc2nc(-c3cccc(OCC)n3)n(-c3c(OC)cccc3OC)c2nc1NS(C)(=O)=O` [Example 137, N-(1-(2,6-Dimethoxyphenyl)-2-(6-ethoxypyridin-2-yl)-5-vinyl-1H-imidazo[4,5-b]pyrazin-6-yl)methanesulfonamide], the EC50 (in general, the concentration at which the effect is half-maximal) fell in the range of 1 to 100 nM. The figure for `CCOc1cccc(-c2nc3nc(NS(C)(=O)=O)c(Cl)nc3n2-c2c(OC)cccc2OC)n1` [Example 138, N-(6-Chloro-1-(2,6-dimethoxyphenyl)-2-(6-ethoxypyridin-2-yl)-1H-imidazo[4,5-b]pyrazin-5-yl)methanesulfonamide] is 1 to 100 nM; for `CCOc1cccc(-c2nc3nnc(NS(C)(=O)=O)c(C)c3n2-c2c(OC)cccc2OC)n1` [Example 139, N-(7-(2,6-Dimethoxyphenyl)-8-(6-ethoxypyridin-2-yl)-6-methyl-7H-imidazo[4,5-c]pyridazinyl)methanesulfonamide] it is 1 to 100 nM; for `CCOc1cccc(-c2nc3nc(CO)c(NS(C)(=O)=O)nc3n2-c2c(OC)cccc2OC)n1` [Example 140, N-(1-(2,6-Dimethoxyphenyl)-2-(6-ethoxypyridin-2-yl)-5-(hydroxymethyl)-1H-imidazo[4,5-b]pyrazin-6-yl)methanesulfonamide] it is 1 to 100 nM.

On to `CCOc1cccc(-c2nc3nc(COC(F)F)c(NS(C)(=O)=O)nc3n2-c2c(OC)cccc2OC)n1` [Example 141, N-(5-((Difluoromethoxy)methyl)-1-(2,6-dimethoxyphenyl)-2-(6-ethoxypyridin-2-yl)-1H-imidazo[4,5-b]pyrazin-6-yl)methanesulfonamide], for which the EC50 lay within 1 to 100 nM. The figure for `CCOc1cccc(-c2nc3nc(Cl)c(NS(=O)(=O)Cc4ncc(C)cn4)nc3n2-c2c(OC)cccc2OC)n1` [Example 142, N-(5-Chloro-1-(2,6-dimethoxyphenyl)-2-(6-ethoxypyridin-2-yl)-1H-imidazo[4,5-b]pyrazin-6-yl)-1-(5-methylpyrimidin-2-yl)methanesulfonamide] is < 1 nM. Next, `CCOc1cccc(-c2nc3nc(Cl)c(NS(=O)(=O)Cc4cccc(F)c4)nc3n2-c2c(OC)cccc2OC)n1` [Example 143, N-(5-Chloro-1-(2,6-dimethoxyphenyl)-2-(6-ethoxypyridin-2-yl)-1H-imidazo[4,5-b]pyrazin-6-yl)-1-(3-fluorophenyl)methanesulfonamide]: 1 to 100 nM; `CCOc1cccc(-c2nc3nnc(NS(=O)(=O)Cc4ncc(Cl)cn4)cc3n2-c2c(OC)cccc2OC)n1` [Example 144, 1-(5-Chloropyrimidin-2-yl)-N-(7-(2,6-dimethoxyphenyl)-8-(6-ethoxypyridin-2-yl)-7H-imidazo[4,5-c]pyridazinyl)methanesulfonamide]: < 1 nM; `CCOc1cccc(-c2nc3nc(N)c(NS(C)(=O)=O)nc3n2-c2c(OC)cccc2OC)n1` [Example 145, N-(5-Amino-1-(2,6-dimethoxyphenyl)-2-(6-ethoxypyridin-2-yl)-1H-imidazo[4,5-b]pyrazin-6-yl)methanesulfonamide]: 1 to 100 nM. On to `CCOc1cccc(-c2nc3nc(F)c(NS(C)(=O)=O)nc3n2-c2c(OC)cccc2OC)n1` [Example 146, N-(1-(2,6-Dimethoxyphenyl)-2-(6-ethoxypyridin-2-yl)-5-fluoro-1H-imidazo[4,5-b]pyrazin-6-yl)methanesulfonamide], for which the EC50 was 1 to 100 nM.
